# In patent US11542264B2, “Heteroaromatic NMDA receptor modulators and uses thereof” (Cadent Therapeutics, Inc., priority 2018, dated 2023):
# Entries after “also recorded” stand apart in the source; their conditions may differ. Like-named read-outs stand apart in the source and are kept apart here.
# Key:
# [1] = Aqueous solubility, shake-flask method; type: physicochemical; settings: phosphate buffer saline, pH 7.4, shake-flask, HPLC-UV; for solubility: pH 7.4, aqueous buffer, kinetic from dmso stock
# Description: The aqueous solubility of the test compound was determined in phosphate buffer saline, pH 7.4, measured by shake-flask method. In this assay, DMSO stock solution of test compound was added to buffer followed by equilibration (shaking), filtration, and determination of soluble amount by HPLC-UV. […] Other imidazopyrazinone comparators from WO 2017/100591 are provided for reference. All comparator analogs are active and potency data is available in WO 2017/100591. This improvement is advantageous because improved aqueous solubility, in one aspect, is anticipated to provide enhanced in vivo performance in humans.
# [2] = Rat IV pharmacokinetic study, in vivo clearance
# Excerpt: Rat microsomal stability data is provided as well. These improvements in in vitro and in vivo clearance are advantageous because reduced clearance, in one aspect, is anticipated to provide enhanced in vivo performance in humans.
# [3] = Rat liver microsome stability; type: in vitro ADME; settings: for half-life: rat, liver microsomes, read-out: Rat liver microsome (RLM) stability t1/2
# Excerpt: (§1) The liver is the most important site of drug metabolism in the body. Approximately 60% of marketed compounds are cleared by hepatic CYP-mediated metabolism (McGinnity, D. F.; Soars, M. G.; Urbanowicz, R. A. and Riley, R. J.; Drug Metab. Disp. 32, 1247, (2004)). Liver microsomes are subcellular fractions which contain membrane bound drug metabolizing enzymes. Microsomes can be used to determine the in vitro intrinsic clearance of a compound. The use of species-specific microsomes can be used to enable an understanding of interspecies differences.
# hNR2B [4] = molecular target: T1, hNR2B (Homo sapiens, UniProt Q05586+Q13224); assay: Oocyte 2EVC NR2B PAM activity; type: cell-based
# T1 construct: expressed in transfected cells
# Excerpt: (§2) EC50 refers to the concentration of a compound that gives half-maximal response.
# NMDA receptor = settings: cited from earlier work; for % response recovered with Ro 25-6981 and DCKA: Table 49 of WO 2017/100591; for Maximum measured potentiation (%) with Ro 25-6981 and DCKA: comparator examples from WO 2017/100591
# [5] = test system: impairment of MMN by MK-801; assay: Mismatch negativity (MMN) efficacy model; settings: rat
# Description: Rats implanted with frontal EEG electrodes were presented with different audio stimuli comprising an auditory oddball “flip-flop” protocol. Briefly, 1,000 standard tones of 6.0 kHz were delivered at 90% probability, and 100 deviant tones of 8.0 kHz were delivered at 10% probability in pseudo-random order (the flip sequence), and then this sequence was then repeated with the 8 kHz tone as the standard, and the 6 kHz tone as the deviant (the flop sequence). MMN is calculated as a difference potential obtained by subtracting the averaged 8 kHz standard tone response (flop) from the averaged 8 kHz deviance tone response (flip) at each 1 ms time point over the EEG recording epochs from 50 ms prior to 150 ms after the onset of these 50 ms auditory tones.
# Test sessions were comprised of three 20-minute flip-flop blocks.
# [6] = Human liver microsome stability; type: in vitro ADME
# Excerpt: as §1
# [7] = test system: PCP-induced cognitive impairment; assay: Rat Novel Object Recognition (NOR) test, PCP-induced cognitive impairment; settings: for reversal of PCP-induced deficit in novel object exploration time: oral
# Description: Rats were treated twice daily for 7 days with either saline vehicle (control group) or PCP (5 mg/kg, intraperitoneal). Following a 14-day washout period of no treatment, rats were tested in the NOR paradigm. Briefly, testing involves two sessions (T1 and T2), each lasting 3 minutes, 1 hour apart. […] In T1, rats are placed in a test arena with two identical objects and allowed to freely explore while their time spent exploring each object is recorded. In T2, rats are returned to the test arena where one of the objects remains the same and the other has been replaced with a novel object. The time spent exploring the novel object versus the time spent exploring the familiar object are recorded and compared to T1 object exploration times.
# hNR2B [8] = molecular target: T2, hNR2B (Homo sapiens, UniProt Q13224); assay: Oocyte 2EVC NR2B PAM activity; type: cell-based
# T2 construct: expressed in transfected cells
# Excerpt: as §2
# [9] = test system: MDR1-transfected MDCK cells; assay: MDCK permeability and efflux assay; type: in vitro ADME
# Excerpt: (§3) Monolayer systems consist of a tight cell layer grown on a porous support to separate two fluid compartments. They are widely regarded as the most sophisticated in vitro tools for medium to high throughput modeling of important pharmacokinetic barriers, such as intestinal epithelium, blood-brain barrier, etc. (J. Pharm Sci. 2012 April; 101(4): 1337-1354). Two systems that are applied widely in monolayer studies are the human colon carcinoma cell line Caco-2 and MDR1-transfected MDCKII and LLC-PK1 cells. In monolayer assays, the flux of a compound through the monolayer of cells is measured. The unidirectional flux of the compound of interest is determined by applying it to either the apical or to the basolateral side of the cell layer and monitoring the time resolved redistribution of it between the two compartments. The vectorial transport ratio (often referred to as Efflux Ratio) is determined by applying bidirectional measurements [apical-to-basolateral (A-B) and basolateral-to-apical (B-A)]. […] In the absence of such transport processes this ratio is approximately 1.
# MDR1 = assay: MDCK permeability and efflux assay; type: in vitro ADME; settings: dog, MDR1-transfected MDCK cells
# Excerpt: as §3
# hNR2C = molecular target: T3, hNR2C (Homo sapiens, UniProt Q14957); assay: Oocyte 2EVC NR2C PAM activity; type: cell-based
# T3 construct: expressed in transfected cells
# Excerpt: as §2
# hNR2D [10] = molecular target: T4, hNR2D (Homo sapiens, UniProt O15399+Q05586); assay: Oocyte 2EVC NR2D PAM activity; type: cell-based; settings: oocytes expressing hNR2D, 10 μM glutamate and 10 μM glycine
# T4 construct: expressed in transfected cells
# Excerpt: as §2
# hNR2D [11] = molecular target: T5, hNR2D (Homo sapiens, UniProt O15399); assay: Oocyte 2EVC NR2D PAM activity; type: cell-based
# T5 construct: expressed in transfected cells
# Excerpt: as §2
# [12] = Table 4, read-out: Oocyte 2EVC NR2B PAM: EC50
# [13] = Table 1, read-out: Oocyte 2EVC NR2B PAM: EC50
# [14] = 100% potentiation = doubling of current induced by glutamate/glycine
# [15] = 10 μM glutamate and 10 μM glycine
# T3 sequence (Q14957 20-1233, other chains not shown): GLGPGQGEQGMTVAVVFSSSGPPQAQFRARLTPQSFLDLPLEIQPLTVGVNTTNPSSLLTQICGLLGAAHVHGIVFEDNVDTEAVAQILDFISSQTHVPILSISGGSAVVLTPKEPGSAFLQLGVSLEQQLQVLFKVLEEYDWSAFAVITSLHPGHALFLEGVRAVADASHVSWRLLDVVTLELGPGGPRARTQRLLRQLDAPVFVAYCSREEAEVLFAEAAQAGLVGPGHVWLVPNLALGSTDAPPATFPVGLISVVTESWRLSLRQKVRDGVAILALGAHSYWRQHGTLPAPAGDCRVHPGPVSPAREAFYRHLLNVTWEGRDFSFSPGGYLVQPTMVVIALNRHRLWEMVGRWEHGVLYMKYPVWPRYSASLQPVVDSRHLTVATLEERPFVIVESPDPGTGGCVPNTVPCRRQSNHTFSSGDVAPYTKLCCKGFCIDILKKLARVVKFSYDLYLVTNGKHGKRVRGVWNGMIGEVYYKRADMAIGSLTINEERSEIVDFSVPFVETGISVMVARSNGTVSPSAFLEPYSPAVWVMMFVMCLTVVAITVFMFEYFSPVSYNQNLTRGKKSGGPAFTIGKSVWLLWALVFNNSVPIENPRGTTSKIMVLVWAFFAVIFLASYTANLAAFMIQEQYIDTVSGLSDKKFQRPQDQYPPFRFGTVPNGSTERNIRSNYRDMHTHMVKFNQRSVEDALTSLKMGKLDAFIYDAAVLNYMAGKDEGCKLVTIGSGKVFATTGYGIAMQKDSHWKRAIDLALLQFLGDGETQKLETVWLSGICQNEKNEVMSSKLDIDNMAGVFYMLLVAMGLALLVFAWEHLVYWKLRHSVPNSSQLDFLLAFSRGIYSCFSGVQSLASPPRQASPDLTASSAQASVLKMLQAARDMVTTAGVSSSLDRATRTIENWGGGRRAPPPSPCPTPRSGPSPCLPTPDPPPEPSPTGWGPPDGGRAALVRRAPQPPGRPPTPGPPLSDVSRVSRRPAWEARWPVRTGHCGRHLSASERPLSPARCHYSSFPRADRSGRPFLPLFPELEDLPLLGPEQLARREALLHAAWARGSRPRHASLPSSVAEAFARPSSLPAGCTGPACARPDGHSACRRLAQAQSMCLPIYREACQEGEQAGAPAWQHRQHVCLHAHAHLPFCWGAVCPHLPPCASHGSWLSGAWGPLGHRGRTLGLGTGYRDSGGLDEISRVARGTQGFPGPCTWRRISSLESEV
# T1 sequence (Q13224 27-1484, other chains not shown): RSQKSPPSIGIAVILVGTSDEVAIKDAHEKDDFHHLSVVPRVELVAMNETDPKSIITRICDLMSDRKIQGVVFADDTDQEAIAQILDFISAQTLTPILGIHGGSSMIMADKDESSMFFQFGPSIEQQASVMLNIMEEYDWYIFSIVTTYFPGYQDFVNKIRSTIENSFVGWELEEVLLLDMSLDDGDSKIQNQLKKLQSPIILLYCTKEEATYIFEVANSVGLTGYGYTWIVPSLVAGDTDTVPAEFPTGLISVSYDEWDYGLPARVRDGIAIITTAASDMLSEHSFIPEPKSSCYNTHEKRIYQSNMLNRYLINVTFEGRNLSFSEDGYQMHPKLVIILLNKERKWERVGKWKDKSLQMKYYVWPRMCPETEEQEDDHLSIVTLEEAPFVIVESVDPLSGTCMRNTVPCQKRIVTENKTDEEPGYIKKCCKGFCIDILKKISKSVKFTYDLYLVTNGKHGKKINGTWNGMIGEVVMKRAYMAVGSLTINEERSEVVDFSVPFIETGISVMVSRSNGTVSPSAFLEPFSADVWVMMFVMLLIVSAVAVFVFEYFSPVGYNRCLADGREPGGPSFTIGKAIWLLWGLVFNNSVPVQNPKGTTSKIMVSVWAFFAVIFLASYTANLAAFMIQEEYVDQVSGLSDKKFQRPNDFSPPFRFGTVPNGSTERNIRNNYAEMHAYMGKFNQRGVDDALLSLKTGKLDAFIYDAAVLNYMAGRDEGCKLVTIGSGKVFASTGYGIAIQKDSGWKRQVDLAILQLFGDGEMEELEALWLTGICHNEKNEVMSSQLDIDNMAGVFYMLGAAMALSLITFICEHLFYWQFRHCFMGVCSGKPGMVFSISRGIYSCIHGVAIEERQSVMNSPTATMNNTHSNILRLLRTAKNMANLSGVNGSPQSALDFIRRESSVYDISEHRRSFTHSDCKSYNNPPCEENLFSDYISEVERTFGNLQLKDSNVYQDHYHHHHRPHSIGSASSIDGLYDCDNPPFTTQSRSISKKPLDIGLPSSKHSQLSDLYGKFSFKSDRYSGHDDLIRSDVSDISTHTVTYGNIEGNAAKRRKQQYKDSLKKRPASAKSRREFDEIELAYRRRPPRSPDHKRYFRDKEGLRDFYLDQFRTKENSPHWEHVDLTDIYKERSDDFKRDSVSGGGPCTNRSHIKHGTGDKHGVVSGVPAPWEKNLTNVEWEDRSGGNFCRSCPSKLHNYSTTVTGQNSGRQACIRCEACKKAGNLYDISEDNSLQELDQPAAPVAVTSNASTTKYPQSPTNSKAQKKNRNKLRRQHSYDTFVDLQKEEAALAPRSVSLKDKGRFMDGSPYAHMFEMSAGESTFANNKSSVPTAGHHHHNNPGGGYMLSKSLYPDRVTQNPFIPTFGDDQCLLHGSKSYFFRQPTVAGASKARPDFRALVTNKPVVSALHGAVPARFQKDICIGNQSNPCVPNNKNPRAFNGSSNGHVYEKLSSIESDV
# T5 sequence (O15399 28-1336, other chains not shown): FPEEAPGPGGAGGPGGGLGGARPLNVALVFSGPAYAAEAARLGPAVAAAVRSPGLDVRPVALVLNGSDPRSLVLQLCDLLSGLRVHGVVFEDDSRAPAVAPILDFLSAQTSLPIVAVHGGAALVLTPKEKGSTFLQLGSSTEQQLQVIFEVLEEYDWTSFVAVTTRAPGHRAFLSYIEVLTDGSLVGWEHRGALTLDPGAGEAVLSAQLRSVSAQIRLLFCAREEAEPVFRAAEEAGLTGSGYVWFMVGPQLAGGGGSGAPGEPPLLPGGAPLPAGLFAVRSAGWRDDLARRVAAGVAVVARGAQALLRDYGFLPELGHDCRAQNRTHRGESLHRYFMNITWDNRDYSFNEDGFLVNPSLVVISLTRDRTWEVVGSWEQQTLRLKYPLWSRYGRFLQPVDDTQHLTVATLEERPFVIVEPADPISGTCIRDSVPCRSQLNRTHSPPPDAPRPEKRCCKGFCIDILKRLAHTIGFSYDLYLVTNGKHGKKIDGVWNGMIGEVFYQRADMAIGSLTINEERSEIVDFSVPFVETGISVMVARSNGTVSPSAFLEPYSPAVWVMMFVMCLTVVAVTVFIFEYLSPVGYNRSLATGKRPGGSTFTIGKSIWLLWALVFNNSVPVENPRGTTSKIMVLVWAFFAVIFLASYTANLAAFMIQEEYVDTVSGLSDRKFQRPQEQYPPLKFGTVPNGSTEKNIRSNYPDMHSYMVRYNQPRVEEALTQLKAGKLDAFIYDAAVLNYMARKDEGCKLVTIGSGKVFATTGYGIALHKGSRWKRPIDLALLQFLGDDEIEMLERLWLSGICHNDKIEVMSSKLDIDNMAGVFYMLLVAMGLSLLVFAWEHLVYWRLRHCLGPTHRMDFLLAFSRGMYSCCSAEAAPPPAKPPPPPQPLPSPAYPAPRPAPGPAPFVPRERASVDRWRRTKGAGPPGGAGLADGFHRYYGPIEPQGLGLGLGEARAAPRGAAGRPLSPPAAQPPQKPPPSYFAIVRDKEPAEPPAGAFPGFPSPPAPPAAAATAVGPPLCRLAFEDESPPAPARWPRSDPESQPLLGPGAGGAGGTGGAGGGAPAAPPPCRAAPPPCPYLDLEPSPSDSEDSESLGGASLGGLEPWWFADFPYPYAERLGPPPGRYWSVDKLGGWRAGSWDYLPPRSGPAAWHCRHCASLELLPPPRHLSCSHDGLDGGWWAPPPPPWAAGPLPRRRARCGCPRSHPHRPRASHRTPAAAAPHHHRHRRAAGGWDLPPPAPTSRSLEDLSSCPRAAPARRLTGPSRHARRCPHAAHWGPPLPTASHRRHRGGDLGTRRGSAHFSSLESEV
# T4 sequence (O15399 28-1336, other chains not shown): as above
smiles,measurement,setting,value
CC1(F)CN(C(=O)Cn2ccn3c(C4CC4)nc(-c4cnc(Cl)c(Cl)c4)c3c2=O)C1 [Example 437],solubility,[1],7 µM
O=C(Cn1ccc2scc(-c3ccc(F)c(Cl)c3)c2c1=O)N1CCCC1 [Example 3],clearance,[2],43.6 mL/min/kg
same,half-life,[3]; Table 4,47.2 min
same,EC50,hNR2B [4]; [12],7010 nM
CC1(F)CN(C(=O)Cn2ccn3cnc(-c4ccc(F)c(C(F)(F)F)c4)c3c2=O)C1 [Example 446],solubility,[1],9 µM
CC1(F)CN(C(=O)Cn2ccc3scc(-c4ccc(F)c(C(F)(F)F)c4)c3c2=O)C1 [Example 43],clearance,[2],29.4 mL/min/kg
same,half-life,[3]; Table 4,60.8 min
same,EC50,hNR2B [4]; [12],441 nM
Cc1nc(-c2ccc(F)c(Cl)c2)c2c(=O)n(CC(=O)N3CC(C)(F)C3)ccn12 [Example 426],Aqueous solubility,[1],20 µM
Cc1cc(-c2nc(C3CC3)n3ccn(CC(=O)N4CC(C)(F)C4)c(=O)c23)ccc1Cl [Example 443],solubility,[1],91 µM
Cc1nc(-c2ccc(F)c(C(F)(F)F)c2)c2c(=O)n(CC(=O)N3CCC(F)C3)ccn12 (centres unmarked) [Example 427],solubility,[1],7 µM
O=C(Cn1cnc2[nH]cc(-c3ccc(F)c(C(F)(F)F)c3)c2c1=O)N1CCC(F)C1 (centres unmarked) [Example 174],EC50,hNR2B [4]; [13],1500 nM
same,% response recovered with Ro 25-6981 and DCKA,NMDA receptor,91%
same,Maximum measured potentiation (%) with Ro 25-6981 and DCKA,NMDA receptor,124%
CC1(F)CN(C(=O)Cn2ccn3ccc(-c4ccc(F)c(Cl)c4)c3c2=O)C1 [Example 397],clearance,[2],46.2 mL/min/kg
same,half-life,[3]; Table 4,37.3 min
same,EC50,hNR2B [4]; [12],1210 nM
O=C(Cn1ccc2scc(-c3ccc(F)c(Cl)c3)c2c1=O)N1CCC(F)C1 (centres unmarked) [Example 9],clearance,[2],35.5 mL/min/kg
same,half-life,[3]; Table 4,37.8 min
same,EC50,hNR2B [4]; [12],3530 nM
CC1(F)CN(C(=O)Cn2ccn3cnc(-c4ccc(Cl)c(Cl)c4)c3c2=O)C1 [Example 447],solubility,[1],69 µM
CC1(F)CN(C(=O)Cn2ccn3ccc(-c4ccc(Cl)c(Cl)c4)c3c2=O)C1 [Example 396],clearance,[2],23.4 mL/min/kg
same,half-life,[3]; Table 4,75 min
same,EC50,hNR2B [4]; [12],589 nM
CC1(F)CN(C(=O)Cn2ccc3c(c(-c4ccc(F)c(Cl)c4)cn3C3CC3)c2=O)C1 [Example 285],clearance,[2],22.2 mL/min/kg
same,half-life,[3]; Table 4,37.8 min
same,EC50,hNR2B [4]; [12],200 nM
same,potency in the Ro 25-6981/DCKA assay (in words),NMDA receptor; data of WO 2017/100591,excellent potency
CC1(F)CN(C(=O)Cn2ccn3c(C4CC4)nc(-c4ccc(Cl)c(Cl)c4)c3c2=O)C1 [Example 435],solubility,[1],14 µM
CC1(F)CN(C(=O)Cn2ccn3c(C4CC4)nc(-c4ccc(F)c(Cl)c4)c3c2=O)C1 [Example 436],solubility,[1],3 µM
same,% response recovered with Ro 25-6981 and DCKA,NMDA receptor,100%
"CC1(F)CN(C(=O)Cn2cnc3c(c(-c4ccc(F)c(Cl)c4)cn3C3CC3)c2=O)C1 [Compound 1, 5-(3-chloro-4-fluorophenyl)-7-cyclopropyl-3-(2-(3-fluoro-3-methylazetidin-1-yl)-2-oxoethyl)-3,7-dihydro-4H-pyrrolo[2,3-d]pyrimidin-4-one]",solubility,[1],29 µM
same,MMN after Compound 1 plus MK-801,"[5]; 60 mg/kg BID, MK-801 0.2 mg/kg IP",prevented impairment of MMN by MK-801
same,stability in Human Liver Microsomes (in words),[6],good stability
same,HLM % Metabolized after 30 min,"[6]; human liver microsomes, 30 min",34.3%
same,microsomal CLint,"[6]; human liver microsomes, read-out: HLM mCLint",27.3 µL/min/mg
same,half-life,"[6]; human liver microsomes, read-out: HLM t1/2",50.8 min
same,reversal of PCP-induced deficit in novel object exploration time,[7]; 0.3 mg/kg,significantly reversed this deficit
same,reversal of PCP-induced deficit in novel object exploration time,[7]; 1.0 mg/kg,significantly reversed this deficit; also recorded: fully-reversed the PCP-induced deficit
same,clearance,[2],7.4 mL/min/kg
same,stability in Rat Liver Microsomes (in words),[3],excellent stability
same,Rat liver microsome (RLM) stability t1/2,[3]; Table 4,>120 min
same,RLM t1/2,[3]; rat liver microsomes,>120 min
same,RLM % Metabolized after 30 min,"[3]; rat liver microsomes, 30 min",1.83%
same,microsomal CLint,"[3]; rat liver microsomes, read-out: RLM mCLint",< 5 µL/min/mg
same,half-life,[3]; Table 4,> 120 min
same,EC50,"hNR2B [4]; oocytes expressing hNR2B, 5 μM glutamate and 3 μM glycine, read-out: Oocyte 2EVC NR2B PAM: Avg EC50",446 nM
same,Oocyte 2EVC NR2B PAM: Concentration Required for Current Doubling,hNR2B [8]; 5 μM glutamate and 3 μM glycine,160 nM
same,Oocyte 2EVC NR2B PAM: Avg Max % Potentiation,hNR2B [8]; [14],478%
same,efflux in the MDCK efflux assay (in words),[9]; MDCK,not subject to efflux
same,membrane penetration (in words),[9]; MDCK,penetrates membranes well
same,A-B MDCK Permeability,"[9]; apical-to-basolateral, MDR1-transfected MDCK cells",32.3 10^−6 cm/sec
same,B-A MDCK Permeability,"[9]; basolateral-to-apical, MDR1-transfected MDCK cells",32.1 10^−6 cm/sec
same,Papp A→B,"MDR1; MDCK-MDR1, apical-to-basolateral",32 ×10⁻⁶ cm/s
same,Papp B→A,"MDR1; MDCK-MDR1, basolateral-to-apical",32 ×10⁻⁶ cm/s
same,Oocyte 2EVC NR2C PAM: Concentration Required for Current Doubling,hNR2C; [15],120 nM
same,Oocyte 2EVC NR2C PAM: Avg Max % Potentiation,hNR2C; [14],1800%
same,EC50,"hNR2C; oocytes expressing hNR2C, 10 μM glutamate and 10 μM glycine",1200 nM
same,EC50,hNR2D [10],1890 nM
same,Oocyte 2EVC NR2D PAM: Concentration Required for Current Doubling,hNR2D [11]; [15],165 nM
same,Oocyte 2EVC NR2D PAM: Avg Max % Potentiation,hNR2D [11]; [14],1700%
CC1(F)CN(C(=O)Cn2ccc3scc(-c4ccc(F)c(Cl)c4)c3c2=O)C1 [Example 39],clearance,[2],27.8 mL/min/kg
same,half-life,[3]; Table 4,42 min
same,EC50,hNR2B [4]; [12],726 nM
CC1(F)CN(C(=O)Cn2ccc3scc(-c4ccc(Cl)c(Cl)c4)c3c2=O)C1 [Example 42],clearance,[2],26.9 mL/min/kg
same,half-life,[3]; Table 4,36 min
same,EC50,hNR2B [4]; [12],463 nM
O=C(Cn1cnc2[nH]cc(-c3ccc(Cl)c(C(F)(F)F)c3)c2c1=O)N1C[C@@H](F)[C@@H](F)C1 [Example 181],EC50,hNR2B [4]; [13],1190 nM
same,% response recovered with Ro 25-6981 and DCKA,NMDA receptor,69%
same,Maximum measured potentiation (%) with Ro 25-6981 and DCKA,NMDA receptor,129%
O=C(Cn1ccc2scc(-c3cnc(Cl)c(Cl)c3)c2c1=O)N1CCC(F)C1 (centres unmarked) [Example 12],clearance,[2],19.4 mL/min/kg
same,half-life,[3]; Table 4,200 min
same,EC50,hNR2B [4]; [12],5630 nM
Cc1nc(-c2ccc(F)c(Cl)c2)c2c(=O)n(CC(=O)N3CC(C)(F)C3)ccn12 [Example 430],Aqueous solubility,[1],43 µM
Cc1nc(-c2ccc(Cl)c(Cl)c2)c2c(=O)n(CC(=O)N3CCC(F)C3)ccn12 (centres unmarked) [Example 429],solubility,[1],26 µM
O=C(Cn1ccn2c(C3CC3)nc(-c3ccc(Cl)c(Cl)c3)c2c1=O)N1CCC(F)C1 (centres unmarked) [Example 433],solubility,[1],30 µM
CC1(F)CN(C(=O)Cn2ccn3cnc(-c4ccc(F)c(Cl)c4)c3c2=O)C1 [Example 445],solubility,[1],14 µM
C[C@]12N[C@H](Cc3ccccc31)c1ccccc12 [MK-801],MMN after vehicle plus MK-801 compared to vehicle plus saline,"[5]; MK-801 0.2 mg/kg, IP",significantly impaired MMN
"c1ccc(C2(N3CCCCC3)CCCCC2)cc1 [PCP, phencyclidine]",time spent exploring the novel object compared to saline control,"[7]; PCP 5 mg/kg intraperitoneal twice daily for 7 days, 14-day washout",significant reduction in time spent exploring the novel object
CC1(F)CN(C(=O)Cn2ccn3c(C4CC4)nc(-c4ccc(F)c(C(F)(F)F)c4)c3c2=O)C1 [Example 438],solubility,[1],2 µM
